Measurements taken from ChEMBL document CHEMBL1201862, “PubChem BioAssay data set” (2004).
Activity calls are given as the source filed them.

Key:
[1] = Late stage assay provider results from the probe development effort to identify selective inhibitors of heat shock protein 90 (HSP90): Absorbance-based cell proliferation assay in SKBR3 cells.; type: functional; conditions: SK-BR-3
[2] = Late stage assay provider results from the probe development effort to identify selective inhibitors of heat shock protein 90 (HSP90): Absorbance-based cell proliferation assay in MCF7 cells.; type: functional
[3] = target: T1, Protein RecA (Mycobacterium tuberculosis, UniProt P9WHJ3); assay: Fluorescence Cell-Free Homogeneous Dose Retest to Identify Inhibitors of RecA-Intein Splicing Activity. [Related pubchem assays (depositor defined):AID2097, AID2223, AID489010, AID492950]; type: functional
T1 sequence (P9WHJ3 whole entry): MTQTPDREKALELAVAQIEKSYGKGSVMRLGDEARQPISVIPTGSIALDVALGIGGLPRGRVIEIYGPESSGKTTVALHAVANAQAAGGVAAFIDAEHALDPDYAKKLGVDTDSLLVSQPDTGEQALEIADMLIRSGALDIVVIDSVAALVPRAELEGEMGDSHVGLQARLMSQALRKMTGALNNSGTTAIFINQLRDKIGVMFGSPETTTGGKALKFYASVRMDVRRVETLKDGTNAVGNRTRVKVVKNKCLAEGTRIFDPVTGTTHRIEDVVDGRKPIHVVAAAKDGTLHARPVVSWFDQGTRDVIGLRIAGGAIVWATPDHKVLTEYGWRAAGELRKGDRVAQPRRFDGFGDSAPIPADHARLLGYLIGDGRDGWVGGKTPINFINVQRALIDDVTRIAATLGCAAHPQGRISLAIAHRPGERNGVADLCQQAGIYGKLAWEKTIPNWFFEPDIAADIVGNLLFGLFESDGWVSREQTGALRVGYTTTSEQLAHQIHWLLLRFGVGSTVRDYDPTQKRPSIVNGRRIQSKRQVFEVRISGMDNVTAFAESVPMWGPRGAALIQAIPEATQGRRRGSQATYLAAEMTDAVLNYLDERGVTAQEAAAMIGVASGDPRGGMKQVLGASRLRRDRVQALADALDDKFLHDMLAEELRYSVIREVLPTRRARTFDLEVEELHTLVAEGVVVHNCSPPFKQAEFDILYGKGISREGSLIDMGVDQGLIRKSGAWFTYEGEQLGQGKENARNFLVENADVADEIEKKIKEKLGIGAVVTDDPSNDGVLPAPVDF

[4] = target: T2, Replicative DNA helicase DnaB (Mycobacterium tuberculosis, UniProt P9WMR3); assay: DnaB intein splicing inhibitors, dose response, biochemical, cell-free fluorescence (AID 449749); type: functional
T2 sequence (P9WMR3 whole entry): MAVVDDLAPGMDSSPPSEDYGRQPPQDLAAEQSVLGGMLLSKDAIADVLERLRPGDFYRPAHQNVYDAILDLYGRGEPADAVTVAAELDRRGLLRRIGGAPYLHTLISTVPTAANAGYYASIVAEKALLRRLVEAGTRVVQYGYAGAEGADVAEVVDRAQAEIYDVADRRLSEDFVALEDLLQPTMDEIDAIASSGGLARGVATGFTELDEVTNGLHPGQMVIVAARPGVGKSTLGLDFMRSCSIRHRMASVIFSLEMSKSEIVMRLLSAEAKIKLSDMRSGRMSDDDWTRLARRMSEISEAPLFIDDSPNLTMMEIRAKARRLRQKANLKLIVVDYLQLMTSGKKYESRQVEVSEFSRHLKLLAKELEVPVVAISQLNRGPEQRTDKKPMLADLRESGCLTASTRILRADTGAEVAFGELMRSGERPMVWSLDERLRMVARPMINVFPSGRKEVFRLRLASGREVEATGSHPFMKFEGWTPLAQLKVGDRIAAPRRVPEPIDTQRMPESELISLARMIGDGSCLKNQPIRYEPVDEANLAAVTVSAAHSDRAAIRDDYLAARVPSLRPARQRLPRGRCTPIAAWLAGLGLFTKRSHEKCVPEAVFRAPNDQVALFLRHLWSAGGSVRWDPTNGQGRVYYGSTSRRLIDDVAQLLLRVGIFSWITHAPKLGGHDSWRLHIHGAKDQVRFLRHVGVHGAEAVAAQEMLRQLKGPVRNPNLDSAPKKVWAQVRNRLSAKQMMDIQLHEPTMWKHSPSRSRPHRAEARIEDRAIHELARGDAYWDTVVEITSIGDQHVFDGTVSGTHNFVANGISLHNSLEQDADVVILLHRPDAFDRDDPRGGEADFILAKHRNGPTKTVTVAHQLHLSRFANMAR

[5] = target: Nonstructural protein 1 (Influenza A virus, UniProt Q194T2); type: functional, Influenza A virus (A/California/07/2009(H1N1))
Sequence of Nonstructural protein 1 (Q194T2 whole entry): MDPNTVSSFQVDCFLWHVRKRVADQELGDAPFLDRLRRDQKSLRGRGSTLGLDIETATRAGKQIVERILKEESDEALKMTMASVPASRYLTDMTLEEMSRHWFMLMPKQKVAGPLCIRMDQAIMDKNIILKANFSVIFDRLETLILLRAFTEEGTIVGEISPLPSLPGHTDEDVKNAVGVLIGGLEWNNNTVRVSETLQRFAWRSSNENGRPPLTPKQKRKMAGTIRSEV

[6] = target: fMet-Leu-Phe receptor (Homo sapiens, UniProt P21462); assay: formyl peptide receptor binders – dose response (AID 519); type: functional
Sequence of fMet-Leu-Phe receptor (P21462 whole entry): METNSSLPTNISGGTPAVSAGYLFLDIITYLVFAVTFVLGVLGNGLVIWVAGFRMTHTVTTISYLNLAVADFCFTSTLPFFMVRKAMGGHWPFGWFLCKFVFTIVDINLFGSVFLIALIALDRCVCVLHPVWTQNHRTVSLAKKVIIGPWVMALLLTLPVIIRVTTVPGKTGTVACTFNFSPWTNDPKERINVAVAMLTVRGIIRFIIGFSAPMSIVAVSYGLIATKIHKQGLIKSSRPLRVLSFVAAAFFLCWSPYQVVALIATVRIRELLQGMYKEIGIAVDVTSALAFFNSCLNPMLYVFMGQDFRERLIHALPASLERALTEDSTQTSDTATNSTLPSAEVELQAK

[7] = target: Metabotropic glutamate receptor 5 (Rattus norvegicus, UniProt P31424); assay: Identification of a glycine sulfonamide based non-MPEP site positive allosteric potentiator (PAM) of mGlu5 (calcium_assay).; type: functional
Sequence of Metabotropic glutamate receptor 5 (P31424 whole entry): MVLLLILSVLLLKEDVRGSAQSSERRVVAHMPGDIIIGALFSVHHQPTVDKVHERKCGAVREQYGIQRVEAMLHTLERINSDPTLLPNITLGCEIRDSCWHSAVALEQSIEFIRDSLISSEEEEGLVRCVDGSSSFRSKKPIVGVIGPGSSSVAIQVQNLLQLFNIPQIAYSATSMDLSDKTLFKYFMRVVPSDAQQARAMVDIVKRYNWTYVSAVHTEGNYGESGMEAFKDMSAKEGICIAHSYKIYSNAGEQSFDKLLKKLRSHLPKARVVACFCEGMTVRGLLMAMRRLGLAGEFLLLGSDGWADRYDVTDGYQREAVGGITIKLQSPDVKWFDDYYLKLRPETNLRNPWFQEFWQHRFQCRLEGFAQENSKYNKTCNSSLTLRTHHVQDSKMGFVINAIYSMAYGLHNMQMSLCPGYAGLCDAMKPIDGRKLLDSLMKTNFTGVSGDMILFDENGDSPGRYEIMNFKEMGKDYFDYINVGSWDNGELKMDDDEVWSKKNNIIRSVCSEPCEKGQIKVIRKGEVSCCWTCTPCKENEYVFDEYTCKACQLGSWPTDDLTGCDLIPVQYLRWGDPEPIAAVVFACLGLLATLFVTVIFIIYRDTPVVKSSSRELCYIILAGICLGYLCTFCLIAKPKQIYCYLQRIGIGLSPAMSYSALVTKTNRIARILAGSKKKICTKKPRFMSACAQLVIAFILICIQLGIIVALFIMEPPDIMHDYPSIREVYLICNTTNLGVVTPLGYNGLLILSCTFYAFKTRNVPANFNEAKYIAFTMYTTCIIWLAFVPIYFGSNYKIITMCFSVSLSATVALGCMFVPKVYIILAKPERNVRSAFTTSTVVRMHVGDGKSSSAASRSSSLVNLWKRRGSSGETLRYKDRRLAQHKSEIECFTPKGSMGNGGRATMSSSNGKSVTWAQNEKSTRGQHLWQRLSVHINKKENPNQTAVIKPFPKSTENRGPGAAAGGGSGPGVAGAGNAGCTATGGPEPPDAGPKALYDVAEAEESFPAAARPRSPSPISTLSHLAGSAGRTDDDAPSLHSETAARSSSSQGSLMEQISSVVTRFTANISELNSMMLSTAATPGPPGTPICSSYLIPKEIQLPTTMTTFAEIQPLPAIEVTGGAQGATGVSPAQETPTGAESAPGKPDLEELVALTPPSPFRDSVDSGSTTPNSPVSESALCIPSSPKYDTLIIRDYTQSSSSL

[8] = tested on: Streptococcus sp. 'group A'; assay: Streptococcus pyogenes SK(-)GAS viability under kanamycin – luminescence, BacTiterGlo, confirmation, counter-screen for streptokinase expression inhibitor project, dose response (AID 1900); type: functional, organism-based
[9] = target: Disintegrin and metalloproteinase domain-containing protein 17 (Homo sapiens, UniProt P78536); assay: exosite inhibitors of ADAM17, dose response, biochemical (AID 743260)
Sequence of Disintegrin and metalloproteinase domain-containing protein 17 (P78536 whole entry, the tested form may be a part): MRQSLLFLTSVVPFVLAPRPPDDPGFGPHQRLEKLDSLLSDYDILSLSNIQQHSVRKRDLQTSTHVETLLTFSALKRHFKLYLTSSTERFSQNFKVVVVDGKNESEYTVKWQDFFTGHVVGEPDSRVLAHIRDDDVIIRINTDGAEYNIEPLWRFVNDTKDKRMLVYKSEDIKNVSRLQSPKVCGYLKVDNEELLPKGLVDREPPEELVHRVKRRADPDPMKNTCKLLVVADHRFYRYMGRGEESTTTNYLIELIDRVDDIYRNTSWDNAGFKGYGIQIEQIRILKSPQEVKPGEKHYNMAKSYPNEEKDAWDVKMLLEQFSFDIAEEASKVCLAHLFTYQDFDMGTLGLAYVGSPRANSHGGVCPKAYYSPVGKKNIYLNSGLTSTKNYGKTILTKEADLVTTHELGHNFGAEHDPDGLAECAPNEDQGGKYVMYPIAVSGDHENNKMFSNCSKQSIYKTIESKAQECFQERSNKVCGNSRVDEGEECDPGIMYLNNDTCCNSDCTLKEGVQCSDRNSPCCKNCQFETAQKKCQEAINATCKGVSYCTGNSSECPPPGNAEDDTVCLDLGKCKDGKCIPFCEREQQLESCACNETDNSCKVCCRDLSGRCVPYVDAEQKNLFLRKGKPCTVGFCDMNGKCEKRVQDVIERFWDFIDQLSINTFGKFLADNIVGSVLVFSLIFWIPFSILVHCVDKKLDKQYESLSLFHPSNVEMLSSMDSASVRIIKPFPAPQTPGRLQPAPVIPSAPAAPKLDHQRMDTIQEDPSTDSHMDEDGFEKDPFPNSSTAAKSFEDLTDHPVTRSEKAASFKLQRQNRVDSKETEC

[10] = target: T3, Streptokinase A (Streptococcus pyogenes serotype M1, UniProt P10520); assay: viability-normalized secreted streptokinase activity reduction – plasminogen activation absorbance, OD405, dose response (AID 1914); type: functional, Streptococcus pyogenes M1 GAS;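 note: secreted streptokinase activity via plasminogen activation per viability signal from cell pellet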
T3 sequence (P10520 whole entry): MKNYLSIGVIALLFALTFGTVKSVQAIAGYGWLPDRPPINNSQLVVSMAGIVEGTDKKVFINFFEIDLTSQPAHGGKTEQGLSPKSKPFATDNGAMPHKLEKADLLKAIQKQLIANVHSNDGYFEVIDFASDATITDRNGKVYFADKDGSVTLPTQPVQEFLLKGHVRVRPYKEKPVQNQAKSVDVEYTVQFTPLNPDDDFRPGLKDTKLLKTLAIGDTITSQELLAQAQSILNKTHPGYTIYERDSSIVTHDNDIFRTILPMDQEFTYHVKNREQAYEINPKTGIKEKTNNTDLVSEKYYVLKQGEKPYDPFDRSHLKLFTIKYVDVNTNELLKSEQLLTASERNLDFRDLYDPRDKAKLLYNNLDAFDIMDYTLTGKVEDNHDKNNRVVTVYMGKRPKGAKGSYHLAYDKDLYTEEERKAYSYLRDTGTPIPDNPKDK

[11] = tested on: Streptococcus; assay: GAS UMAA2166 growth inhibition – luminescence, BacTiterGlo, counter-screen for streptokinase expression inhibitor project, dose response (AID 1915); type: functional, organism-based;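 note: potency for reduction of bacterial viability or growth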
[12] = target: Peroxisome proliferator-activated receptor gamma/Nuclear receptor coactivator 2 (Homo sapiens, UniProt P37231); type: functional;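 note: agonist potency for raising coactivator recruitment to the receptor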
[13] = target: Peroxisome proliferator-activated receptor gamma/Nuclear receptor coactivator 3 (Homo sapiens, UniProt P37231); type: functional;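 note: agonist potency for raising coactivator recruitment to the receptor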
Sequence of Peroxisome proliferator-activated receptor gamma/Nuclear receptor coactivator 3 (P37231 whole entry, the tested form may be a part): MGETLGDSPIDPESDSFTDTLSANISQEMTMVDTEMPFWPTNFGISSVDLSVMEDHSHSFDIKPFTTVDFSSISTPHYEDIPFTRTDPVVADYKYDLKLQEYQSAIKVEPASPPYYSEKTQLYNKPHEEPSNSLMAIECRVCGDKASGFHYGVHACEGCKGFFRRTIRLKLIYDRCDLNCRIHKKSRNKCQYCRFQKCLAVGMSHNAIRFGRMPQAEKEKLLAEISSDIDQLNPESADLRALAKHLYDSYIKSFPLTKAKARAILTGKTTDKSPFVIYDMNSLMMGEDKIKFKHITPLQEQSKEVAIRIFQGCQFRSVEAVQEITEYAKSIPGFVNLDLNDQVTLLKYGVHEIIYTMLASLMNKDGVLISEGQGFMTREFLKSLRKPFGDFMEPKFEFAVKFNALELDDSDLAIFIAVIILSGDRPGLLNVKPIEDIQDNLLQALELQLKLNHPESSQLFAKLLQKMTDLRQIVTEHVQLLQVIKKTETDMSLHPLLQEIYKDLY
Sequence of Peroxisome proliferator-activated receptor gamma/Nuclear receptor coactivator 3 (Q9Y6Q9 whole entry, further chain, the tested form may be a part): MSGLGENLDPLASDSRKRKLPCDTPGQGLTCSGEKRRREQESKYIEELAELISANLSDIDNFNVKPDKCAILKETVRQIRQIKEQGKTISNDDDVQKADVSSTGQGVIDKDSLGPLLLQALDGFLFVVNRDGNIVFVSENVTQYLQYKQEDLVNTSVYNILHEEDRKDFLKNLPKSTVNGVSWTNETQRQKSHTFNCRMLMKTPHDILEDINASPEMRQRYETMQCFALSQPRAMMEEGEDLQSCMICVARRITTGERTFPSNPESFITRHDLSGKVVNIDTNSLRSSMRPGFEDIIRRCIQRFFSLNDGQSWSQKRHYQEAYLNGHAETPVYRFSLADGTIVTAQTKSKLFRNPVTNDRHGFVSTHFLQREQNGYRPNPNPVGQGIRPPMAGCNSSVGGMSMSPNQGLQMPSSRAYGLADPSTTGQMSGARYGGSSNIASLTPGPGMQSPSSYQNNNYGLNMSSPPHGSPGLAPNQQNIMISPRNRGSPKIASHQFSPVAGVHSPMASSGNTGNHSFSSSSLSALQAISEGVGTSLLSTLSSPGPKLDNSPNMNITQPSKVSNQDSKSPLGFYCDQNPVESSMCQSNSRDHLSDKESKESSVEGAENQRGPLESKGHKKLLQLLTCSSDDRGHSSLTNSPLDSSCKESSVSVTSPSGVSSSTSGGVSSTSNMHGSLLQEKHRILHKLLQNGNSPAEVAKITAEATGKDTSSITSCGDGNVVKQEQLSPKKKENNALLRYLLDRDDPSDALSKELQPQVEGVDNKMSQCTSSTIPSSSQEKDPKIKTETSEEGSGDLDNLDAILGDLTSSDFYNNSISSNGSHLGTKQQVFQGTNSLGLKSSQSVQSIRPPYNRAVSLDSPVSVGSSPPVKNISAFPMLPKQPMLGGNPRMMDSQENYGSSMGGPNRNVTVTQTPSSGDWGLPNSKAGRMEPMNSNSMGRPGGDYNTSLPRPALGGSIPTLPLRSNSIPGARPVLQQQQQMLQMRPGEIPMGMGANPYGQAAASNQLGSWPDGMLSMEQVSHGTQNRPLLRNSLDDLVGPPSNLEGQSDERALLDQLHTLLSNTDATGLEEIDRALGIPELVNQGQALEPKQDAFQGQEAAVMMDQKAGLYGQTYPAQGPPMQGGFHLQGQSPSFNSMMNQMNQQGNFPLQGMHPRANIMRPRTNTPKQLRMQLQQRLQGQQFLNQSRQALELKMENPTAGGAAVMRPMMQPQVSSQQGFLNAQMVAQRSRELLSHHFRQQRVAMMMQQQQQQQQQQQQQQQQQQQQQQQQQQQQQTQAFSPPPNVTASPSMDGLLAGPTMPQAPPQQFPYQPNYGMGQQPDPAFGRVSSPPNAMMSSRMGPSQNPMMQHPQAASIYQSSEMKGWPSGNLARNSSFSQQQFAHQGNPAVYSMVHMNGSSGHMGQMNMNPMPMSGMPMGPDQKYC

[14] = target: T4, Oxysterols receptor LXR-beta (Homo sapiens, UniProt P55055); type: functional, cell-based;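 note: agonist activity at LXR measured by a cell-based luminescence readout across a dose range, run as a counterscreen for daf-12 agonists; HEK293 cells with Gal4-LXR fusion and GAL4-driven luciferase reporter; potency for activation of Gal4-LXR reporter so compounds are agonists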
T4 sequence (P55055 whole entry): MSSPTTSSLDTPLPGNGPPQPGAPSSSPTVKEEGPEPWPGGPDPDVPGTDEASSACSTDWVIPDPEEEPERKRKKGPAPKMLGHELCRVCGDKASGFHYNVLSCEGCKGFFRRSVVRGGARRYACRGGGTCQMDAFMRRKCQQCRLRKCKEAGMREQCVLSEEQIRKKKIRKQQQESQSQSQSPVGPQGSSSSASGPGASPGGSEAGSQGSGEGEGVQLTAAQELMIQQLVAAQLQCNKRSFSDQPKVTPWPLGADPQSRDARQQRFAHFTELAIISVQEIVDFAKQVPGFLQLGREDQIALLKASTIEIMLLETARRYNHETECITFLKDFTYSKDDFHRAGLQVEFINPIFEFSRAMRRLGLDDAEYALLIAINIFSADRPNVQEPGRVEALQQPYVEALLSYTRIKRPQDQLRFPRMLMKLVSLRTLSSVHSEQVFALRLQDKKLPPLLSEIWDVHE

[15] = target: Ion channel NompC (Danio rerio, UniProt Q7T1G6); assay: Fluorescence counterscreen assay for TRPML3 agonists: dose response cell-based high-throughput screening assay to identify agonists of the transient receptor potential channel N1 (TRPN1). [Related pubchem assays: 1526, 1424, 1448 ]; type: functional
[16] = target: Mucolipin-3 (Homo sapiens, UniProt Q8TDD5); assay: Dose response cell-based high-throughput screening assay for agonists of the transient receptor potential channel ML3 (TRPML3). [Related pubchem assays: 1526, 1424, 1448 ]; type: functional
[17] = target: T5, Leucine aminopeptidase (Plasmodium falciparum 3D7, UniProt Q8IL11); assay: P. falciparum M17LAP inhibitors, primary screen, biochemical, fluorogenic H-Leu-NHMec substrate, 1536-well (AID 1619); type: functional
T5 sequence (Q8IL11 whole entry): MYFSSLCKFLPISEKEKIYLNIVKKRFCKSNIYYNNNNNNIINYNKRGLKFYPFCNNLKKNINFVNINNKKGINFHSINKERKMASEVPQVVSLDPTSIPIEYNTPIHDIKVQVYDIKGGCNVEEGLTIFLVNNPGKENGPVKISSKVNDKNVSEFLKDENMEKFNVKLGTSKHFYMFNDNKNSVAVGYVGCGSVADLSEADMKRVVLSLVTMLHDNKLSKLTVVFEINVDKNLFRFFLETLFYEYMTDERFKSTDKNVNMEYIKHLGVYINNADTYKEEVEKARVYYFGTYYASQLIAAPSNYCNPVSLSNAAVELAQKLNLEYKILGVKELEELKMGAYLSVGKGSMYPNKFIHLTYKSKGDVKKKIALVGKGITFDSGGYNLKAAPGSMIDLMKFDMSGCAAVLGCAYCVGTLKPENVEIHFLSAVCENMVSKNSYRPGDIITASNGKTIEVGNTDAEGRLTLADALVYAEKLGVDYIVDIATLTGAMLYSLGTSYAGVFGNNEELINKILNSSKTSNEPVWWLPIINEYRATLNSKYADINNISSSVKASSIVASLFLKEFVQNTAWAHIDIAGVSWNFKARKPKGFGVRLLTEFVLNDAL

[18] = target: Peroxisome proliferator-activated receptor gamma/Nuclear receptor coactivator 1 (Homo sapiens, UniProt P37231); type: functional;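 note: agonist potency as compounds enhance coactivator SRC-1 recruitment to PPARgamma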

For `CC(=O)c1ccc(NC(=O)c2ccc(=O)oc2)cc1`, the IC50 [1] was > 100 µM (inactive) and the IC50 [2] was > 100 µM (inactive).

With `Nc1ccc(Nc2ccccc2N)cc1` the EC50 [3] was 6.86 µM (active), the AC50 [4] was 17.9 µM (active) and the IC50 [5] was 8.33 µM (active). For the same compound, the Ki [6] was > 66.7 µM (inactive).

`CS(=O)(=O)N(CC(=O)Nc1ccccn1)c1cc(C(F)(F)F)ccc1Cl` showed an EC50 [7] of 85 nM.

With `Cc1cc(SCC(=O)c2ccc(O)c(O)c2)n2nc(C)c(-c3ccccc3)c2n1` the EC50 [8] was 7.32 µM (active), the IC50 [9] was > 69.5 µM (inactive) and the EC50 [10] was > 150 µM (not active). For the same compound, the EC50 [11] was 13.9 µM (active).

In the case of `C=CCN1C=CC(=C/C=C(/C#N)C(=O)OCC)C=C1`, the EC50 [12] is reported as > 79.4 µM (not active), the EC50 [13] is reported as > 79.4 µM (not active) and the EC50 [14] is reported as > 67.5 µM (inactive). For the same compound, the EC50 [15] was 6.09 µM (active), the EC50 [16] was 15.3 µM (not active) and the IC50 [17] was 72.5 µM (active). The EC50 [18] was > 79.4 µM (not active).
